Test results taken from PMC6271529, “Studies on the Anticonvulsant Activity and Influence on GABA-ergic Neurotransmission of 1,2,4-Triazole-3-thione-Based Compounds” (Molecules, 2014).
Entries after “also recorded” stand apart in the source; their conditions may differ. Read-outs that look alike come from different tables or passages of the source.

Tests used:
[1] = test system: maximal electroshock-induced seizures; experiment: Maximal electroshock-induced seizure (MES) test in mice; format: in vivo, mouse; details: for p/t, number of animals protected against MES-induced seizures / number tested / responders at 300 mg/kg: 300 mg/kg i.p.; for responders at 300 mg/kg / ED50: Mus musculus, ip; for responders at 300 mg/kg: read-out: percent of animals protected against MES-induced seizures; for PI (TD50/ED50): protective index; for onset of action: significant protection as early as 15 min after parenteral administration, MES
Procedure: Additionally, all efforts were made to minimize animal suffering and to use only the number of animals necessary to produce reliable scientific data.
In the initial stage of the study, groups of eight mice were supplied with the compounds (administered intraperitoneally) in a dose of 300 mg/kg and then exposed to electrical impulse at fixed intervals (15, 30, 60, 120 min).
Each mouse was used only once.
Fresh drug solutions were prepared on each day of experimentation and administered at 15, 30, 60 and 120 min. before the initiation of maximal electroconvulsions. Electroconvulsions were produced by a current (0.2 s stimulus duration; 500 V, 50 Hz, fixed current intensity of 25 mA) delivered via ear-clip electrodes by a Rodent Shocker generator (constant-current stimulator Type 221, Hugo Sachs Elektronik, Freiburg, Germany). The criterion for the occurrence of seizure activity was the tonic hind limb extension. The animals were administered with a constant dose of 300 mg/kg of each of the examined compounds and were subjected to MES-induced seizures. […] The animals were administered with different doses of the tested compounds so as to obtain a variable percentage of protection against maximal electroconvulsions, allowing the construction of dose-response relationship lines for each examined compound administered i.p. at various pretreatment times, according to Litchfield and Wilcoxon. Each ED50 value represents the dose of the studied compounds that is required to protect 50% of the animals tested against MES-induced seizures.

GABAA receptors = experiment: Radioligand binding assay, [3H]muscimol, rat cerebral cortex; details: compound 1 × 10^−6 M, [3H]muscimol, rat cerebral cortex;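 note: low percentages indicate weak binding of the compound to the receptor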
Procedure: Binding experiments were conducted in 96-well microplates in a total volume of 200 μL of appropriate buffer. The reaction mixture included 50 μL solution of test compound, 50 μL of radioligand, and […] the tissue suspension. Rat cerebral cortex was used for each receptor. […] Radioligand binding data were analyzed using iterative curve fitting routines (GraphPAD/Prism, Version 3.0, San Diego, CA, USA). Ki values were calculated from the Cheng and Prusoff equation [36].

[2] = test system: benzodiazepine (BDZ)-binding sites; experiment: Radioligand binding assay, [3H]flunitrazepam, rat cerebral cortex; details: compound 1 × 10^−6 M;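 note: low percentages indicate weak binding of the compound to the site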
Procedure: Binding experiments were conducted in 96-well microplates in a total volume of 200 μL of appropriate buffer. The reaction mixture included 50 μL solution of test compound, 50 μL of radioligand, and […] the tissue suspension. Rat cerebral cortex was used for each receptor. The radioactivity was measured in MicroBeta TriLux 1450-liquid scintillation counter (PerkinElmer, Waltham, MA, USA). Radioligand binding data were analyzed using iterative curve fitting routines (GraphPAD/Prism, Version 3.0, San Diego, CA, USA). Ki values were calculated from the Cheng and Prusoff equation [36].

[3] = test system: motor performance in mice; experiment: Chimney test (motor performance impairment, acute adverse effects); details: i.p.
Procedure: Adult male Swiss mice (weighing 22–26 g) that were kept in colony cages with free access to food and tap water, housed under standardized housing conditions, were used. After seven days of adaptation to laboratory conditions, the animals were randomly assigned to experimental groups each comprised of eight mice. Each mouse was used only once. Procedures involving animals and their care were conducted in accordance with current European Community and Polish legislation on animal experimentation. The experimental protocols and procedures described in this manuscript were approved by the First Local Ethics Committee at the Medical University in Lublin and the Second Local Ethics Committee at the University of Life Sciences in Lublin and complied with the European Communities Council Directive of 24 November 1986 (86/609/EEC).
In this test, the animals had to climb backwards up a plastic tube (3 cm inner diameter, 30 cm length), and motor performance impairment was indicated by the inability of the mice to climb backward up the transparent tube within 60 s. […] To evaluate each TD50 value, at least four groups of animals (each group consisted of eight mice) injected with various doses of the appropriate compound were challenged with the chimney test. A dose-response relationship line was calculated on the basis of the percentage of mice showing motor deficits by means of the log-probit method according to Litchfield and Wilcoxon.

[4] = pretreatment time 120 min, mice
[5] = 0.25 h, pretreatment time 15 min, mice
[6] = 0.5 h, pretreatment time 30 min, mice
[7] = 1 h, pretreatment time 60 min, mice
[8] = 2 h, pretreatment time 120 min, mice
[9] = pretreatment time 15 min, mice, read-out: ED50 ± S.E. (MES test)
[10] = pretreatment time 30 min, mice, read-out: ED50 ± S.E. (MES test)
[11] = pretreatment time 60 min, mice, read-out: ED50 ± S.E. (MES test)
[12] = pretreatment time 120 min, mice, read-out: ED50 ± S.E. (MES test)
[13] = chimney TD50 / MES ED50, pretreatment time 15 min
[14] = chimney TD50 / MES ED50, pretreatment time 30 min
[15] = chimney TD50 / MES ED50, pretreatment time 60 min
[16] = chimney TD50 / MES ED50, pretreatment time 120 min

Percent of Specific Binding, GABAA (GABAA receptors) [%] | Percent of Specific Binding, BDZ [2] [%] | Compound | p/t, number of animals protected against MES-induced seizures / number tested ([1]; pretreatment time 15 min, mice) | p/t, number of animals protected against MES-induced seizures / number tested ([1]; pretreatment time 30 min, mice) | p/t, number of animals protected against MES-induced seizures / number tested ([1]; pretreatment time 60 min, mice) | p/t, number of animals protected against MES-induced seizures / number tested [1, 4] | responders at 300 mg/kg [1, 5] [%] | responders at 300 mg/kg [1, 6] [%] | responders at 300 mg/kg [1, 7] [%] | responders at 300 mg/kg [1, 8] [%] | melting point [°C] | ED50 [1, 9] [mg/kg] | ED50 [1, 10] [mg/kg] | ED50 [1, 11] [mg/kg] | ED50 [1, 12] [mg/kg] | PI (TD50/ED50) [1, 13] | PI (TD50/ED50) [1, 14] | PI (TD50/ED50) [1, 15] | PI (TD50/ED50) [1, 16] | onset of action ([1]; mice) | further results
8 | 14 | Fc1ccccc1-n1c(-c2cccc(Cl)c2)n[nH]c1=S [Compound 1a, 5-(3-Chlorophenyl)-4-(2-fluorophenyl)-2,4-dihydro-3H-1,2,4-triazole-3-thione] | 0/8 | 0/8 | 1/8 | 1/8 | 0 | 0 | 12.5 | 12.5 | 170 to 171 | – | – | – | – | – | – | – | – | – | –
21 | 6 | CSc1ccc(-n2c(-c3ccc(Cl)cc3)n[nH]c2=S)cc1 [Compound 17a, 5-(4-Chlorophenyl)-4-[4-(methylsulfanyl)phenyl]-2,4-dihydro-3H-1,2,4-triazole-3-thione] | 0/8 | 0/8 | 1/8 | 0/8 | 0 | 0 | 12.5 | 0 | 214 to 216 | – | – | – | – | – | – | – | – | – | –
23 | 7 | Cc1ccc(-n2c(-c3cccc(Cl)c3)nn(CN3CCN(c4ccccc4)CC3)c2=S)cc1 [Compound 23a, 5-(3-Chlorophenyl)-4-(4-methylphenyl)-2-[(4-phenylpiperazin-1-yl)methyl]-2,4-dihydro-3H-1,2,4-triazole-3-thione] | 0/8 | 0/8 | 0/8 | 0/8 | 0 | 0 | 0 | 0 | – | – | – | – | – | – | – | – | – | – | –
21 | 13 | Cc1ccc(-n2c(-c3cccc(Cl)c3)nn(CN3CCN(c4ccc(F)cc4)CC3)c2=S)cc1 [Compound 24a, 5-(3-Chlorophenyl)-2-{[4-(4-fluorophenyl)piperazin-1-yl]methyl}-4-(4-methylphenyl)-2,4-dihydro-3H-1,2,4-triazole-3-thione] | 0/8 | 0/8 | 0/8 | 0/8 | 0 | 0 | 0 | 0 | – | – | – | – | – | – | – | – | – | – | –
– | – | CCCC(CCC)C(=O)O [Valproate, Magnesium valproate] | – | – | – | – | – | – | – | – | – | – | 217 ± 9.4 | 218 ± 18.9 | 247 ± 21.6 | – | – | – | – | – | TD50 ± S.E. (chimney test) ([3]; pretreatment time 15 min): 363.3 ± 14.2 mg/kg; TD50 ± S.E. (chimney test) ([3]; pretreatment time 30 min): 372.9 ± 16.9 mg/kg; TD50 ± S.E. (chimney test) ([3]; pretreatment time 60 min): 417.3 ± 9.5 mg/kg; TD50 ± S.E. (chimney test) ([3]; pretreatment time 120 min): 512.3 ± 20.2 mg/kg

Compound | Percent of Specific Binding, GABAA (GABAA receptors) [%] | Percent of Specific Binding, BDZ [2] [%] | p/t, number of animals protected against MES-induced seizures / number tested ([1]; pretreatment time 15 min, mice) | p/t, number of animals protected against MES-induced seizures / number tested ([1]; pretreatment time 30 min, mice) | p/t, number of animals protected against MES-induced seizures / number tested ([1]; pretreatment time 60 min, mice) | p/t, number of animals protected against MES-induced seizures / number tested [1, 4] | responders at 300 mg/kg [1, 5] [%] | responders at 300 mg/kg [1, 6] [%] | responders at 300 mg/kg [1, 7] [%] | responders at 300 mg/kg [1, 8] [%] | melting point [°C] | ED50 [1, 9] [mg/kg] | ED50 [1, 10] [mg/kg] | ED50 [1, 11] [mg/kg] | ED50 [1, 12] [mg/kg] | PI (TD50/ED50) [1, 13] | PI (TD50/ED50) [1, 14] | PI (TD50/ED50) [1, 15] | PI (TD50/ED50) [1, 16] | onset of action ([1]; mice) | further results
Fc1ccccc1-n1c(-c2ccc(Cl)cc2)n[nH]c1=S [Compound 12a, 5-(4-Chlorophenyl)-4-(2-fluorophenyl)-2,4-dihydro-3H-1,2,4-triazole-3-thione] | 13 | 18 | 6/8 | 6/8 | 7/8 | 7/8 | 75 | 75 | 87.5 | 87.5 | 240 to 242 | 208 ± 25.3 | 186 ± 24.6 | 218 ± 21.7 | 209 ± 27.3 | 2.6 | 2.7 | 1.9 | 2.3 | quick onset of action | ED50 ([1]; pretreatment times 15, 30, 60, 120 min, read-out: ED50 (MES), range over pretreatment times): 186 to 218 mg/kg
S=c1[nH]nc(-c2ccc(Cl)cc2)n1-c1ccccc1Br [Compound 15a, 4-(2-Bromophenyl)-5-(4-chlorophenyl)-2,4-dihydro-3H-1,2,4-triazole-3-thione] | 8 | 21 | 6/8 | 8/8 | 8/8 | 7/8 | 75 | 100 | 100 | 87.5 | 250 to 252 | 183 ± 25.1 | 105 ± 16.5 | 137 ± 19.9 | 176 ± 25 | 1.5 | 2.4 | 1.8 | 1.4 | quick onset of action | –
Cc1ccc(-n2c(-c3cccc(Cl)c3)nn(CN3CCOCC3)c2=S)cc1 [Compound 22a, 5-(3-Chlorophenyl)-4-(4-methylphenyl)-2-(morpholin-4-ylmethyl)-2,4-dihydro-3H-1,2,4-triazole-3-thione] | 6 | 12 | 4/8 | 5/8 | 3/8 | 2/8 | 50 | 62.5 | 37.5 | 25 | – | 224 ± 20.9 | 228 ± 14.7 | 274 ± 10.9 | 448 ± 21.4 | 1.5 | 1.4 | 1.6 | 1.0 | quick onset of action | anticonvulsant activity (in words) ([1]; MES test, mice): slightly weaker than that of valproate; also recorded: weak anticonvulsant activity
